pIC50: −log10 of the molar value.
pIC50 (Inhibition of human Rsk2): 6.07 | pIC50 (Inhibition of human Rsk3): 7.32
SMILES: CN(C)c1nc2ccc1CCCn1cc(c3ccccc31)C1=C(C(=O)NC1=O)c1cn(c3ccccc13)CC2

— BindingDB's records for doi:10.1016/j.bmcl.2007.02.059 (Johnson & Johnson Pharmaceutical Research & Development, 2007)
